Assay results taken from patent US20220133722A1, “PHARMACEUTICAL COMPOSITIONS” (QUE ONCOLOGY PTY LTD, priority 2019, published 2022).
Values joined by “and” are separate entries in the source; they are usually repeats but may differ in a detail not shown here. Equal entries are not always repeated.

Experiment: Part 2 PK study: 200 mg QD versus 100 mg BID for 10 days under fed conditions
Type: in vivo, human
Conditions: for AUC0-last / AUC0-tau / Cavg / Cmax / Fluct / Tlast / Tmax / t½ / % AUCexp / AUCinf / Accum Index / CLss/F / Cmin: fed
Experimental: Part 2 involved analysing the PK parameters obtained following either single (QD) or twice daily (BD) dosing of a compound of formula (Ia) under fed conditions.
Subjects were randomized 1:1 to receive a daily dose of 200 mg administered once daily in the morning (200 mg capsule) or twice daily (100 mg capsules BID) for a total of 10 days. PK blood samples were taken on Day 1 pre-dose and at 0.25, 0.5, 1.0, 1.5, 2, 3, 4, 8, 10, 12 and 16 hours post-dose. On Days 2 to 10, PK blood samples were taken once pre-dose, and on Days 11 to 14, at 24, 36, 48, 60, 72 and 96 hours post-dose.
Subjects selected for participation checked into the clinical unit and were randomized to the dosing regimen receiving their first dose of study drug on the morning of Day 1 followed by PK and safety assessments through the morning of Day 2 (24 hours post-dose). Subjects on a BID regimen received their second dose of study drug approximately 12 hours after the first dose. Subjects remained confined in the clinic for dosing BID or QD through the last dose of study drug on the morning of Day 10. PK samples were collected through 96 hrs post-dose. Subjects were discharged from the clinic following collection of the 72 hr PK sample, returning to the clinic on the morning of Day 14 for the 96 hr sample collection.
For both Parts 1 and 2, samples were processed and analysed as follows. The method extracted Q-122 and the Internal Standard (IS, Q-122 ^13C4) from human plasma using protein precipitation extraction.
The analytes were separated by HPLC on a Phenomenex Synergi Polar-RP column, and the eluates monitored by an API4000 MS/MS detector in positive MRM mode. The extract was then assayed against a calibration curve. The data were acquired and processed by the data acquisition system Analyst® (Sciex) linked directly to the API4000 MS/MS detector and then processed in Watson LIMS™ (Thermo Scientific), where applicable. The method range is from 10.0 to 2500 ng/mL using 50 μL of matrix and has a run time of approximately 3.2 minutes per sample.
Plasma PK parameters for each dosing regimen and dose level were calculated from the concentrations of Q-122 and its major metabolites measured in pre-dose and post-dose plasma samples. For each dose level, descriptive statistics (sample size, arithmetic means, geometric means, standard deviation, % coefficient of variation, minimum, median, and maximum) are presented.
The pharmacokinetic results were processed according to standard non-compartmental analytical procedures. The software used was Phoenix™ WinNonlin® v 6.4 (Pharsight Corporation, USA) and Microsoft® Excel® 2010 (Microsoft Corporation). The following PK parameters were estimated from plasma data.

[1] = 100 mg BID, Day 1, individual subjects
[2] = 100 mg BID, Day 10, individual subjects
[3] = 200 mg QD, Day 1, individual subjects

Cmin (range over subjects) (100 mg BID dosing with food): 117 to 195 ng/mL
change of Cavg between days 1 and 10 (100 mg BID dosing with food): doubled
increase of mean Cmax between days 1 and 10 (100 mg BID dosing with food): less than 2 fold
trough concentrations with BID dosing relative to QD dosing (100 mg BID versus 200 mg QD): approximately double
Tlast [1]: 24.00 h
Tmax [1]: 1.00 h and 1.50 h
AUC0-tau (100 mg BID, Day 1, max): 4378 ng·h/mL
Cavg (100 mg BID, Day 1, max): 364.87 ng/mL
Cmax (100 mg BID, Day 1, max): 939.00 ng/mL
Fluct (100 mg BID, Day 1, max): 270.44%
Tlast (100 mg BID, Day 1, max): 24.00 h
t½ (100 mg BID, Day 1, max): 9.38 h
Cavg (100 mg BID, Day 1, mean): 299.088 ng/mL
Fluct (100 mg BID, Day 1, mean): 241.041%
Tlast (100 mg BID, Day 1, mean): 24.000 h
Cavg (100 mg BID, Day 1, median): 307.51 ng/mL
Fluct (100 mg BID, Day 1, median): 252.72%
Tlast (100 mg BID, Day 1, median): 24.00 h
AUC0-last (100 mg BID, Day 1, min): 5186 ng·h/mL
AUC0-tau (100 mg BID, Day 1, min): 2727 ng·h/mL
Cavg (100 mg BID, Day 1, min): 227.25 ng/mL
Cmax (100 mg BID, Day 1, min): 405.00 ng/mL
Fluct (100 mg BID, Day 1, min): 173.90%
Tlast (100 mg BID, Day 1, min): 24.00 h
Tmax (100 mg BID, Day 1, min): 1.00 h
t½ (100 mg BID, Day 1, min): 3.19 h
Tmax [2]: 1.50 h and 1.00 h
% AUCexp (100 mg BID, Day 10, max): 8.16%
Accum Index (100 mg BID, Day 10, max): 4.17
CLss/F (100 mg BID, Day 10, max): 26.80 L/h
Cavg (100 mg BID, Day 10, max): 583.47 ng/mL
Cmin (100 mg BID, Day 10, max): 195.00 ng/mL
Fluct (100 mg BID, Day 10, max): 240.58%
Tlast (100 mg BID, Day 10, max): 72.00 h
t½ (100 mg BID, Day 10, max): 30.30 h
% AUCexp (100 mg BID, Day 10, mean): 4.679%
CLss/F (100 mg BID, Day 10, mean): 19.340 L/h
Cavg (100 mg BID, Day 10, mean): 453.609 ng/mL
Cmin (100 mg BID, Day 10, mean): 145.833 ng/mL
Fluct (100 mg BID, Day 10, mean): 193.726%
Tlast (100 mg BID, Day 10, mean): 40.000 h
% AUCexp (100 mg BID, Day 10, median): 4.42%
Accum Index (100 mg BID, Day 10, median): 1.58
CLss/F (100 mg BID, Day 10, median): 17.38 L/h
Cavg (100 mg BID, Day 10, median): 480.30 ng/mL
Cmin (100 mg BID, Day 10, median): 138.50 ng/mL
Fluct (100 mg BID, Day 10, median): 200.31%
Tlast (100 mg BID, Day 10, median): 36.00 h
% AUCexp (100 mg BID, Day 10, min): 1.52%
AUC0-last (100 mg BID, Day 10, min): 5510 ng·h/mL
AUC0-tau (100 mg BID, Day 10, min): 3731 ng·h/mL
AUCinf (100 mg BID, Day 10, min): 6000 ng·h/mL
Accum Index (100 mg BID, Day 10, min): 1.28
CLss/F (100 mg BID, Day 10, min): 14.28 L/h
Cavg (100 mg BID, Day 10, min): 310.92 ng/mL
Cmax (100 mg BID, Day 10, min): 677.00 ng/mL
Cmin (100 mg BID, Day 10, min): 117.00 ng/mL
Fluct (100 mg BID, Day 10, min): 152.13%
Tlast (100 mg BID, Day 10, min): 24 h
Tmax (100 mg BID, Day 10, min): 1.00 h
t½ (100 mg BID, Day 10, min): 5.46 h
Cmin (range over subjects) (200 mg QD dosing with food): 52 to 94 ng/mL
change of Cmax and Cavg between Days 1 and 10 (200 mg QD dosing with food): neither Cmax nor Cavg changed
Tlast [3]: 24.00 h
AUC0-last (200 mg QD, Day 1, max): 12571 ng·h/mL
AUC0-tau (200 mg QD, Day 1, max): 12571 ng·h/mL
Cavg (200 mg QD, Day 1, max): 523.80 ng/mL
Cmax (200 mg QD, Day 1, max): 2010.00 ng/mL
Fluct (200 mg QD, Day 1, max): 501.79%
Tlast (200 mg QD, Day 1, max): 24.00 h
t½ (200 mg QD, Day 1, max): 17.12 h
Cavg (200 mg QD, Day 1, mean): 335.791 ng/mL
Fluct (200 mg QD, Day 1, mean): 372.185%
Tlast (200 mg QD, Day 1, mean): 24.000 h
Cavg (200 mg QD, Day 1, median): 324.48 ng/mL
Fluct (200 mg QD, Day 1, median): 377.75%
Tlast (200 mg QD, Day 1, median): 24.00 h
AUC0-last (200 mg QD, Day 1, min): 1632 ng·h/mL
AUC0-tau (200 mg QD, Day 1, min): 1632 ng·h/mL
Cavg (200 mg QD, Day 1, min): 67.99 ng/mL
Cmax (200 mg QD, Day 1, min): 101.00 ng/mL
Fluct (200 mg QD, Day 1, min): 148.55%
Tlast (200 mg QD, Day 1, min): 24.00 h
t½ (200 mg QD, Day 1, min): 4.61 h
SMILES: c1cnc(NCc2ccc(CNc3ncccn3)cc2)nc1 [Q-122]
AUC0-last [1]: 6822 ng·h/mL and 7028 ng·h/mL and 6463 ng·h/mL and 6090 ng·h/mL and 5186 ng·h/mL
AUC0-tau [1]: 3781 ng·h/mL and 2727 ng·h/mL and 4254 ng·h/mL and 3600 ng·h/mL and 4378 ng·h/mL
Cavg [1]: 354.49 ng/mL and 299.97 ng/mL and 364.87 ng/mL and 232.90 ng/mL and 315.05 ng/mL and 227.25 ng/mL
Cmax [1]: 939.00 ng/mL and 773.00 ng/mL and 845.00 ng/mL and 405.00 ng/mL and 852.00 ng/mL and 563.00 ng/mL
Fluct [1]: 264.89% and 257.70% and 231.59% and 173.90% and 270.44% and 247.74%
t½ [1]: 9.38 h and 6.21 h and 3.97 h and 3.19 h and 5.52 h and 4.66 h
% AUCexp [2]: 2.24% and 1.52% and 8.16% and 4.45% and 7.33% and 4.38%
AUC0-last [2]: 7715 ng·h/mL and 5510 ng·h/mL and 6477 ng·h/mL and 5615 ng·h/mL and 7597 ng·h/mL
AUC0-tau [2]: 5982 ng·h/mL and 3731 ng·h/mL and 5545 ng·h/mL and 4118 ng·h/mL and 6283 ng·h/mL
AUCinf [2]: 7834 ng·h/mL and 6000 ng·h/mL and 6779 ng·h/mL and 6059 ng·h/mL and 7945 ng·h/mL
Accum Index [2]: 2.06 and 1.33 and 4.17 and 1.36 and 1.79 and 1.28
CLss/F [2]: 14.28 L/h and 16.72 L/h and 26.80 L/h and 18.03 L/h and 24.29 L/h and 15.92 L/h
Cavg [2]: 583.47 ng/mL and 498.51 ng/mL and 310.92 ng/mL and 462.09 ng/mL and 343.13 ng/mL and 523.54 ng/mL
Cmax [2]: 1160.00 ng/mL and 865.00 ng/mL and 1050.00 ng/mL and 677.00 ng/mL and 1070.00 ng/mL
Cmin [2]: 122.00 ng/mL (2×) and 164.00 ng/mL and 117.00 ng/mL and 155.00 ng/mL and 195.00 ng/mL
Fluct [2]: 201.90% and 199.80% and 240.58% and 200.83% and 152.13% and 167.13%
Tlast [2]: 48.00 h and 36.00 h (2×) and 72.00 h and 24.00 h (2×)
t½ [2]: 12.52 h and 6.01 h and 30.30 h and 6.26 h and 10.19 h and 5.46 h
AUC0-last [3]: 6439 ng·h/mL and 1632 ng·h/mL and 6744 ng·h/mL and 8831 ng·h/mL and 12137 ng·h/mL and 12571 ng·h/mL
AUC0-tau [3]: 8831 ng·h/mL and 12137 ng·h/mL and 12571 ng·h/mL and 6439 ng·h/mL and 1632 ng·h/mL and 6744 ng·h/mL
Cavg [3]: 268.28 ng/mL and 67.99 ng/mL and 290.99 ng/mL and 367.97 ng/mL and 505.70 ng/mL and 523.80 ng/mL
Cmax [3]: 980.00 ng/mL and 101.00 ng/mL and 1410.00 ng/mL and 1700.00 ng/mL and 1880.00 ng/mL and 2010.00 ng/mL
Fluct [3]: 365.28% and 148.55% and 501.79% and 461.99% and 371.76% and 383.73%
t½ [3]: 7.07 h and 5.60 h and 4.61 h and 9.17 h and 17.12 h and 8.29 h
